{"source": "patent US20250288583A1", "about": "“Treatment of Mucus Hypersecretion” (priority 2024, published 2025)", "key": {"[1]": {"molecular_target": "T1, hTRPM8 channel (Homo sapiens, UniProt Q7Z2W7)", "T1 construct": "host or cells: CHO cells", "T1 sequence (Q7Z2W7 whole entry)": "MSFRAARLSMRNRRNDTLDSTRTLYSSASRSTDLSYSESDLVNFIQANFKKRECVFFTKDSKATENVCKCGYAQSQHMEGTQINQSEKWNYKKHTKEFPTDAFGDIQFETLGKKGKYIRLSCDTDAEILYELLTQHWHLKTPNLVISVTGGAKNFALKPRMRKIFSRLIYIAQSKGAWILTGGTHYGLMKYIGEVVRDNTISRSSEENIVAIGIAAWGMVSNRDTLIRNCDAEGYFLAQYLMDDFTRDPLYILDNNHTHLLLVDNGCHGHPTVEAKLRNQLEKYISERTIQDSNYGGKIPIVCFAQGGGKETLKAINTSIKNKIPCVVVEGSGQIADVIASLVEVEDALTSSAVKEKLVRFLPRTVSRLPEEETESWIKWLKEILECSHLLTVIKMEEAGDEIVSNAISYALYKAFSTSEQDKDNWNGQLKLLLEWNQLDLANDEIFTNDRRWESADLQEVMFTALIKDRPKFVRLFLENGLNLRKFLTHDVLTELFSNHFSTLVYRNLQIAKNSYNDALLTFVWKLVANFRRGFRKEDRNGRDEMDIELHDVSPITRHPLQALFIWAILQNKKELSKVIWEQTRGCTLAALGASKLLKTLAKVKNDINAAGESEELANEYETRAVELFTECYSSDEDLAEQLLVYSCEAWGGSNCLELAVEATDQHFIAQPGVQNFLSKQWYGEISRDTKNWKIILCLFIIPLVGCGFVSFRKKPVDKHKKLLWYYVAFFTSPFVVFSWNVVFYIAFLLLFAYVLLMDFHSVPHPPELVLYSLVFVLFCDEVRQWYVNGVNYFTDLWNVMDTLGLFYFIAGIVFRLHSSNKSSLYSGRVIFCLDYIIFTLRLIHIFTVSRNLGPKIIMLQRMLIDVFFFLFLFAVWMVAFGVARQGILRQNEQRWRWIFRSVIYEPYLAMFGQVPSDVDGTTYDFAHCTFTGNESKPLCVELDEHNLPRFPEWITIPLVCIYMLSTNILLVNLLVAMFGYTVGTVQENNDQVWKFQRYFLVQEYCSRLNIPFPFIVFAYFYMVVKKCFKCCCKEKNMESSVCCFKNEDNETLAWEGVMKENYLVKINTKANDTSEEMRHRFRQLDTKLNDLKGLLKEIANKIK", "assay": "TRPM8 receptor assay, calcium entry (Fluo-8, FLIPR) in transfected CHO cells", "type": "cell-based", "conditions": "for Potency Relative to L-menthol: ratio of TRPM8 EC50 values, menthol = 1.0", "excerpt": "FIG. 4. Agonist activities of TRPM8 analogs. […] The relative fluorescence (RF) unit on the ordinate represents calcium entry into transfected cells. […] The structures of these compounds are in Table 4.\nThe applicant has synthesized and examined a series of p-menthanecarboxamides conjugated to amino acid esters. […] This class of molecules is called N-alkylcarbonyl-amino acid esters. GlyOiPr is a p-menthanecarboxamide conjugate of glycine isopropyl (iPr) ester. It is similar in structure to WS-5, a cooling agent used as a food additive. WS-5 is the p-menthane-glycine ethyl (Et) ester, or GlyOEt. […] These in vitro effects were measured in CHO cells transfected with the hTRPM8 channel. Receptor activity was quantified using a Fluo-8 calcium kit and a Fluorescence Imaging Plate Reader ([…]™)."}, "[2]": {"test_system": "philtrum skin", "assay": "Cooling duration bioassay on philtrum skin", "type": "in vivo, human", "excerpt": "(§1) FIG. 1. Comparison of cooling duration of various p-menthanecarboxamide analogs on philtrum skin versus ocular margins. The philtrum skin is keratinized, but the ocular margins are not. The test substances numbered 1 to 11 are: D-Ala-OiPr, Gly-OiPr, D-Ala-OEt, D-Ala-OMe, D-Ala-GlynPr, GlynPr, D-Ala-OnBu, GlynBu, GlyOEt, L-Ala-OEt, and N-Me-D-Ala-OEt, respectively. Two outliers (1 and 2) were identified as preferred embodiments because they preferentially cool the ocular margins. The nasal cavity surfaces like the ocular margins are not keratinized.\n(§2) Cooling agents have been assayed in various ways depending on intended use. For example, for the skin the test substance can be applied on philtrum skin, using descriptions of coolness on a scale of 0 to 3. For the ocular surface, the active ingredient can be applied to the closed eyelids using a wipe. In the oral cavity, drug applications are on the posterior dorsal surface of the tongue. For the oropharyngeal surface, the cooling agent may be applied as an orally disintegrating tablet. The ability of a cooling agent to antagonize a noxious stimuli may also be tested, using nociception from citric acid or chili pepper sauce. Responses are usually measured using a Visual Analog Scale with a numerical rating. For nasal responses, however, such procedures have not been standardized. Some endpoints to consider are open and comfortable breathing, the presence or absence of sniffles, and the secretion of phlegm."}, "[3]": {"test_system": "ocular margins", "assay": "Cooling duration bioassay on eyelids/ocular margins", "type": "in vivo, human", "conditions": "for Eyelids/Ocular Surface: Table 6, cooling duration, non-keratinized; for Ocular Surface: Table 7, Gly esters", "excerpt": "as §1, §2"}, "[4]": {"test_system": "oral cavity", "assay": "Chili-pepper sauce test (oral cavity)", "type": "in vivo, human", "set-up": "scale not given here", "conditions": "Table 6; grades 0, +, ++ without key", "excerpt": "as §2"}, "[5]": {"test_system": "oropharyngeal surface", "assay": "Bioassay on oropharyngeal surface", "type": "in vivo, human", "conditions": "Table 7; grades 0, ++ without key", "excerpt": "as §2"}, "[6]": {"test_system": "nasal cavity", "assay": "Nebulizer screening of TRPM8 agonists for sensations in the nasal cavity", "type": "in vivo, human", "conditions": "NasoNeb nebulizer, 3 to 5 sec per nostril", "procedure": "Formulations for nebulization with NasoNeb® used a standard recipe of (Table 8): 1% of the active ingredient (1 to 10 mg/mL), 2% Tween 80 (Polysorbate 80), 1 to 5% ethanol, and made up to 100% with water. The mixture is centrifuged in a FlackTek, Inc., Speedmixer for at least 10 min at 3000 rpm. The Speedmixer spins the sample in 3 dimensions. The result is a white homogeneous liquid suspension with some of the solids now dissolved. For dosing, ˜2 to 3 mL is loaded into the canister of the nebulizer. The nebulizer nozzle tip is placed in the nostril and activated by pressing a button for 3 to 5 sec using a clock timer. […] For D-Ala-OiPr a 5-sec activation will deliver 2*0.73 mL*2 mg/ml, or a total dose of 3 mg per nose. The nasal cavity is relatively tolerant to exogenous agents with irritant properties, as many rinses are used for rhinitis and sinusitis. For some p-menthanecarboxamide analogs, a 2% (20 mg/mL) solution is possible and contemplated. An ideal agent reproduces a comfortable cooling or sensations of negative heat flux in the nasal cavity. […] Heat flux refers to the rate of heat transfer per unit area. The sinonasal cavity mucosa differs from philtrum skin and ocular margins in histology, so the choice of the right molecule must be made by experiment. The TRPM8 agonists were chosen for screening using a nebulizer for delivery. The NasoNeb system is powerful and effective for the OMC (FIG. 3). The delivery time per nostril in three to five seconds. […] These parameters were estimated in the initial trials: • Onset and offset of cooling sensations in the nasal cavity. • The intensity and quality of the cooling sensations in the nasal cavity. • Presence of effects such as sneezing or cough after dosing. • Degree of nasal stuffiness on a scale of 0 to 5. • Degree of rhinorrhea and phlegm in nasal secretions. • Questions regarding comfort and sleep at night."}, "[7]": {"test_system": "ostiomeatal complex", "assay": "Case studies: nebulized cooling agent in subjects with rhinitis and rhinosinusitis", "type": "in vivo, human", "conditions": "NasoNeb delivery in subjects with rhinosinusitis", "excerpt": "Eight subjects with rhinitis and rhinosinusitis volunteered to test cooling agents delivered with the NasoNeb® nebulizer (FIG. 3). The results were clear, robust, and evident. No statistical analysis was necessary. In a 3 to 5-day course of nebulization t.i.d., all subjects reported the ability to manage and control stuffed-up breathing in their activities. All reported comfortable sleep. The sounds of sniffling and congestion of the nose (“sniffles”), snorting, or gurgling were still present, but to a lesser degree. The subject felt it was easier to blow out liquids from the nasal cavity onto a tissue, and the volume and frequency of blowing decreased. Viscous yellow mucus was less in volume and density. The number of wipes deposited daily into a waste basket decreased by >50%. The subjects-were cheerful and enthusiastic because nasal discomfort was under control. As one subject remarked: “The stuffed-up nose problem is now history!” Severat of these cases are reported below as “Case Studies.”\nThe subject was given a NasoNeb® nebulizer (unavailable in China) and five individual bottles containing 15 mL of a 1% GlyOiPr solution (suspended in 2% Tween 80, 5% ethanol, and 92% water). They were shown how to load the NasoNeb canister with about 2 mL of liquid and activate the device for a 3-second dose into each nostril. The recommended dosage was three times a day, starting in the morning and at about 6-hour intervals, and for five days.\nThe subject agreed to using the NasoNeb nebulizer with a cooling agent. They were given a NasoNeb nebulizer and three bottles, each containing 15 ml of a 1% GlyOiPr solution (suspended in 2% Tween 80, 5% ethanol, and 92% water). They were shown how to load the NasoNeb canister with about 2 mL of liquid and activate the device for a 3-second dose into each nostril. The recommended dosage was three times a day, starting in the morning and at about 6-hour intervals, and for five days. After a 5-day trial, the subject noted a significant improvement in sleep and comfortable breathing. […] Their headaches were gone, and their appetite improved. They were advised to continue using the Nebulizer/coolant for another week and then on an as-needed basis. Their family has noticed that the subject has become less withdrawn, more engaging, and interested in their surroundings.\nThe subject volunteered for a trial with GlyOiPr. They were given a NasoNeb® machine and a plastic squeeze bottle containing 50 mL of GlyOiPr at 3 mg/mL suspended in 1% ethanol/2% polysorbate 80. They learned how to load the canister and activate the pump. Then, they were instructed to rinse their nose thoroughly first thing in the morning and then use the Nebulizer at 5 sec per nostril to deliver the solution. The procedure was to be repeated at 2 hours and 5 hours later to total three daily activations. The subject was interviewed after dosing for three days. They said breathing was much easier at night after the dosing, and they slept well. Nasal secretions were still present but less in volume. […] They were encouraged to use the Nebulizer as needed but not to exceed three daily doses. Three weeks after the start of the experiment, they reported that they were in complete control of their rhinitis. They would do a single dose at night before sleep and one in the morning when needed. They no longer felt congested, and the headaches were gone. The slimy phlegm in the nostrils was gone, and crusting was absent. Their nose felt clean. Their social life improved.\nTheir main complaint was episodes at night when they would wake up and not be able to breathe comfortably. Sleep apnea and lung disorders were ruled out, and the diagnosis was rhinosinusitis. This was confirmed by a computerized tomography scan and endoscopic examination by a qualified ENT specialist. They agreed to test the preferred embodiments GlyOnPr, GlyOiPr, D-Ala-OnPr, and D-Ala-OiPr systematically, one after the other."}, "[8]": {"molecular_target": "T2, TRPV1 (Homo sapiens, UniProt Q8NER1)", "T2 construct": "expressed in transfected cells", "T2 sequence (Q8NER1 whole entry, species assumed)": "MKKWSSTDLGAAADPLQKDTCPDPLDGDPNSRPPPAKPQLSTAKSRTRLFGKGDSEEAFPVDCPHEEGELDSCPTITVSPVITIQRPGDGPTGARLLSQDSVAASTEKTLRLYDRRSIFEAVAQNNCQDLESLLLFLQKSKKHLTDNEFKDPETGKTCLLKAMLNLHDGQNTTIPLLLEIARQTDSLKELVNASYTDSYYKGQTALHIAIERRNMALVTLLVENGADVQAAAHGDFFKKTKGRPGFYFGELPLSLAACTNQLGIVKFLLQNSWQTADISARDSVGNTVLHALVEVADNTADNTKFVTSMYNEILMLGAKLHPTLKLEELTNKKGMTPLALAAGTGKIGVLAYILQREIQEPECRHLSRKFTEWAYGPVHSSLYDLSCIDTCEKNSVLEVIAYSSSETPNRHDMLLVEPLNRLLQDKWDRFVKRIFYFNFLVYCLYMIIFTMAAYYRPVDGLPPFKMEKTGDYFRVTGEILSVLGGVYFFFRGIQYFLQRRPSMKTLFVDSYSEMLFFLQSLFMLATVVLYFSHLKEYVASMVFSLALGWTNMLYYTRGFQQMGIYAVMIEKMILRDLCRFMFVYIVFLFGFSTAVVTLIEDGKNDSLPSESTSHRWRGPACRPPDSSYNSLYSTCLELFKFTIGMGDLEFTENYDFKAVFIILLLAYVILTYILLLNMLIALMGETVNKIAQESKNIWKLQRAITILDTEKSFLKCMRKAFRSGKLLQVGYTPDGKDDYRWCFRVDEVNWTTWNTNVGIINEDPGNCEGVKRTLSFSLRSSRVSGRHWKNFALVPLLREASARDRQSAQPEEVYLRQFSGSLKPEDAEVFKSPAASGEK", "assay": "TRPV1 specificity assay in transfected cells", "type": "cell-based", "conditions": "FIG. 5; capsaicin positive control"}, "[9]": {"test_system": "nasal mucus secretion", "assay": "Range-finding study of CPS-125, Up-Down method, nasal mucus secretion as endpoint", "type": "in vivo, human", "excerpt": "The recognition that inhibition of mucus hypersecretion might be a valuable and unique pharmacological attribute of TRPM8 agonists prompted the applicant to re-examine such compounds in his inventory. CPS-125 was described by Wei in U.S. Pat. No. 7,417,048 (August 2008), and its structure is in Table 10. This molecule incorporates a sulfamoyl group to increase water solubility and is sulfadiazine coupled to p-menthanecarboxamide. In a range-finding study, CPS-125 was suspended in 1% Ethanol/2% Polysorbate 80/saline and titrated using the Up-Down method of Dixon (Annu. Rev. Pharmacol. Toxicol. 20:441-462.1980) with nasal mucus secretion as the endpoint. The effective concentration for reducing secretions by +80% was 8 mg/ml of CPS-125. […] Such heterocyclic structures include pyrrole, furan, oxane, thiophene, thioxazole, and oxazole derivatives.\nCPS-125 was active when administered as drops or in a manually activated spray. The nose is pinched and released after instilling 0.3 to 0.5 mL into the nostrils. After pinch and release, the reflex sniff or snort enhances delivery of the drops to the ostiomeatal complex. Using a power-assisted nebulizer enhances delivery of CPS-125. CPS-125's molecular weight of 416 Daltons is the highest of the tested compounds. Normally, large lipophilic molecules are not expected to penetrate secretions to reach target. Apparently, the sulfamoyl group confers the qualities of penetration, stability, and retention to make it a viable lead candidate for inhibition of mucus hypersecretion."}, "[10]": {"conditions": "Table 6, cooling duration, keratinized skin"}}, "data": [{"smiles": "CCCCOC(=O)CNC(=O)[C@@H]1C[C@H](C)CC[C@H]1C(C)C", "note": "[GlyOnBu, [((1R,2S,5R)-2-isopropyl-5-methyl-cyclohexanecarbonyl)-amino]-acetic acid n-butyl ester]", "values": [{"measurement": "EC50", "setting": "[1]; CHO cells transfected with hTRPM8, Fluo-8 calcium kit, FLIPR", "value": 1.36, "unit": "µM"}, {"measurement": "Potency Relative to L-menthol", "setting": "[1]", "value": 2.8}, {"measurement": "Philtrum Skin", "setting": "[2]; [10]", "value": 38, "unit": "min"}, {"measurement": "Philtrum Skin", "setting": "[2]; Table 7, Gly esters", "value": 38, "unit": "min"}, {"measurement": "Eyelids/Ocular Surface", "setting": "[3]", "value": 35, "unit": "min"}, {"measurement": "Ocular Surface", "setting": "[3]", "value": 35, "unit": "min"}, {"measurement": "Chili-Pepper Sauce Test", "setting": "[4]", "value": 0}, {"measurement": "Oropharyngeal Surface", "setting": "[5]", "value": 0}]}, {"smiles": "CCCOC(=O)CNC(=O)[C@@H]1C[C@H](C)CC[C@H]1C(C)C", "note": "[GlyOnPr, [((1R,2S,5R)-2-isopropyl-5-methyl-cyclohexanecarbonyl)-amino]-acetic acid n-propyl ester]", "values": [{"measurement": "Philtrum Skin", "setting": "[2]; [10]", "value": 42, "unit": "min"}, {"measurement": "Philtrum Skin", "setting": "[2]; Table 7, Gly esters", "value": 42, "unit": "min"}, {"measurement": "Eyelids/Ocular Surface", "setting": "[3]", "value": 54, "unit": "min"}, {"measurement": "Ocular Surface", "setting": "[3]", "value": 54, "unit": "min"}, {"measurement": "Chili-Pepper Sauce Test", "setting": "[4]", "value": 0}, {"measurement": "Oropharyngeal Surface", "setting": "[5]", "value": 0}, {"measurement": "Sensory effects after delivery into the nasal cavity", "setting": "[6]", "value": "About the same duration of action as GlyOiPr, but less refreshing."}, {"measurement": "Relief of stuffiness and breathing", "setting": "[7]", "value": "provided relief"}]}, {"smiles": "CCOC(=O)CNC(=O)[C@@H]1C[C@H](C)CC[C@H]1C(C)C", "note": "[GlyOEt, [((1R,2S,5R)-2-isopropyl-5-methyl-cyclohexanecarbonyl)-amino]-acetic acid ethyl ester, reference compound]", "values": [{"measurement": "Potency Relative to L-menthol", "setting": "[1]", "value": 10.6}, {"measurement": "Philtrum Skin", "setting": "[2]; [10]", "value": 24, "unit": "min"}, {"measurement": "Philtrum Skin", "setting": "[2]; Table 7, Gly esters", "value": 24, "unit": "min"}, {"measurement": "Eyelids/Ocular Surface", "setting": "[3]", "value": 15, "unit": "min"}, {"measurement": "Ocular Surface", "setting": "[3]", "value": 15, "unit": "min"}, {"measurement": "Increase of cooling on raising the concentration", "setting": "[3]; from 1 mg/ml to 2 mg/ml", "value": 15, "unit": "min"}, {"measurement": "Increase of cooling on raising the concentration", "setting": "[3]; from 1 mg/ml to 5 mg/ml", "value": 22, "unit": "min"}, {"measurement": "Chili-Pepper Sauce Test", "setting": "[4]", "value": 0}, {"measurement": "Oropharyngeal Surface", "setting": "[5]", "value": 0}]}, {"smiles": "COc1cc(CNC(=O)CCCC/C=C/C(C)C)ccc1O", "note": "[capsaicin, reference compound]", "values": [{"measurement": "Response of cells transfected with TRPV1", "setting": "[8]", "value": "respond"}]}, {"smiles": "CC(C)[C@@H]1CC[C@@H](C)C[C@H]1C(=O)Nc1ccc(S(=O)(=O)Nc2ncccn2)cc1", "note": "[CPS-125, (1R,2S,5R)-2-Isopropyl-5-methyl-cyclohexanecarboxylic acid [4-(pyrimidin-2-ylsulfamoyl)-phenyl]-amide]", "values": [{"measurement": "Activity when administered as drops or in a manually activated spray", "setting": "[9]; 0.3 to 0.5 mL into the nostrils, pinch and release", "value": "active"}, {"measurement": "Duration of action among the 25+ compounds tested", "setting": "[9]; in vivo", "value": "longest duration of action"}, {"measurement": "Effective concentration for reducing secretions by +80%", "setting": "[9]; suspended in 1% Ethanol/2% Polysorbate 80/saline, Up-Down method of Dixon", "value": 8, "unit": "mg/mL"}]}]}
